Where a name gives a salt, the structure may show the parent alone.
Key:
hα7-wt nAChR [1] = target: T1, hα7-wt nAChR (Homo sapiens, UniProt P36544); test: Whole-cell voltage-clamp recording, PAM type classification; format: cell-based; design: key: Type 1 compounds enhance the effect size of the current elicited by 1 mM choline but minimally alter the kinetics of the receptor.; Type 2 compounds enhance the effect size of the current elicited by 1 mM choline while reducing the rate and/or the extent of desensitization.; Type 3 compounds enhance the effect size of the current elicited by 1 mM choline. When tested at higher concentrations up to 10 μM they completely inhibit desensitization, in particular a 1 mM choline application of 250 milliseconds.; Type 4 compounds allow for an initial desensitization of the receptor followed by a re-opening of the receptor during agonist application; conditions: qualitative kinetic properties; 1 mM choline; hα7-wt nAChR-expressing GH4C1 cells
T1 construct: expressed in transfected cells; host or cells: GH4C1 cells (recombinant, stably over-expressing)
Method: The compounds of the present invention are classified as type 1-4, based on qualitative kinetic properties, as determined by whole-cell voltage-clamp recordings. This classification is based on the effect of an α7 PAM compound, as described hereinbefore, on the signal elicited by an agonist application. In particular, said agonist is choline at a concentration of 1 mM. In a preferred experimental setting, said α7 PAM compound and choline are simultaneously applied to the cell, as described hereinafter. Desensitization is defined as the closure of the receptor upon activation during the application of the agonist in whole-cell voltage-clamp electrophysiology measurements seen as the reduction of the […] current after initial activation by the agonist.
The definition of the PAM types 1-4 is described hereinafter: • Type 1 compounds enhance the effect size of the current elicited by 1 mM choline but minimally alter the kinetics of the receptor. In particular, the rate and the extent of desensitization, elicited by the agonist, is not affected. The compound-modulated response to 1 mM choline, therefore, is a close to linear scaling of the 1 mM choline response in absence of the α7 PAM compound. • Type 2 compounds enhance the effect size of the current elicited by 1 mM choline while reducing the rate and/or the extent of desensitization. • Type 3 compounds enhance the effect size of the current elicited by 1 mM choline. […] At low-potency concentrations of the α7 PAM compound, the agonist-induced activation, which is followed by desensitization, can still be separated from the compound-induced re-opening as an initial inward current-maximum. At higher potency concentrations of the α7 PAM compound, the re-opening occurs faster than the closure due to desensitization so that the initial current-maximum disappears.
The compounds of the present invention also have a potentiating effect on the response to choline when measured by whole-cell voltage-clamp electrophysiology in GH4C1 cells stably over-expressing the human wild-type α7 receptor, as described hereinafter.
Whole-Cell Voltage-Clamp Recording
Whole-cell voltage-clamp recording from mammalian cells has provided a powerful means of assessing the function of membrane proteins thought to be subunits of ligand-gated ion channels. Activation of such proteins by endogenous or exogenous ligands causes opening of a pore associated with the receptor through which ions flow down their electrochemical gradient. In the case of the hα7-wt nAChR-expressing GH4C1 recombinant cell line the preferential permeability to calcium of this receptor means that calcium flows into the cell upon activation by ACh, choline and other nicotinic ligands giving rise to a calcium current. Since this receptor rapidly desensitizes in the presence of an agonist it is important that an application system is used which is capable of very rapid switching of solutions (<100 ms) to prevent partial or full desensitisation of receptor responses coincident with the time of agonist application. Consequently, a second convenient technique to assess the enhancement of nicotinic efficacy is whole-cell voltage-clamp recording from hα7-wt nAChR-expressing GH4C1 cells coupled with a rapid-application system.
• The external recording solution consisted of 152 mM NaCl, 5 mM KCl, 1 mM MgCl2, 1 mM Calcium, 10 mM HEPES; pH 7.3. The internal recording solution consisted of 140 mM CsCl, 10 mM HEPES, 10 mM EGTA, 1 mM MgCl2, pH 7.3. • b) Patch-clamp recording was carried out using a Patch-clamp amplifier (Multiclamp 700A, Axon Instruments, CA, USA). The membrane potential of hα7-wt nAChR-expressing GH4C1 cells was voltage-clamped in the whole cell configuration (Hamill et al, 1981) with a borosilicate glass electrode of 1.5-3 MΩ tip resistance when filled with the internal recording solution. […]

hα7-wt nAChR [2] = target: T1, hα7-wt nAChR; test: Ca2+ flux imaging (FDSS), potentiation of choline response; format: cell-based; conditions: for EC50: hα7-wt nAChR-expressing GH4C1 cells, potentiation of 100 μM choline, compounds 0.01 μM to 30 μM; for Emax: GH4-C1, maximal effect, efficacy of 100 μM choline defined as 100% in the absence of a PAM, GH4C1 cells
Method: Ca^2+ Flux Imaging (FDSS)
• Hanks buffered saline solution (HBSS, Invitrogen, Belgium), supplemented with 10 mM HEPES (Invitrogen, Belgium), CaCl2 to a final concentration of 5 mM, 0.1% Bovine serum albumin (Sigma-Aldrich NV, Belgium). b) Calcium-Sensitive Dye—Fluo-4AM • Fluo-4AM (Molecular Probes, USA) was dissolved in DMSO containing 10% Pluronic acid (Molecular Probes, USA) to give a stock solution which was diluted in assay buffer supplemented with 5 mM probenicid (Sigma, Aldrich NV, Belgium) to give a final concentration of 2 μM. c) 384-Well Plates • Black 384 well plate black/clear plates, PDL pre-coated (Corning, Incorporated, USA) d) Calcium Flux Measurement • A Functional drug screening system (FDSS, Hamamatsu) was used to measure intracellular free-calcium flux signals. Method
Monolayers of hα7-wt nAChR-expressing GH4C1 cells were grown in multi-well plates, in particular black-sided, transparent bottomed 384 well plates coated with poly-D-lysine for 24 hours prior to loading with a fluorescent calcium indicator, in a particular embodiment loading with fluo-4AM for up to 120 minutes.
PAM activity was detected in real time by applying the compound to be tested to the loaded cells along with a α7 nicotinic receptor agonist during constant monitoring of the cellular calcium mobilization by fluorescence in a FDSS. Compounds giving peak fluorescent responses greater than the response due to agonist alone, were considered to be α7 nAChR PAM's. In a particular embodiment, the α7 nicotinic receptor agonist was choline, a more particular embodiment choline applied at a sub-maximal concentration of 100 μM. In a further setting of the present invention the compounds to be tested were applied prior to the α7 nicotinic receptor agonist, in a particular embodiment up to 10 minutes prior to the agonist.
A control response to choline was calculated on each plate from the difference in peak in fluorescence in wells receiving either choline or assay buffer alone. Compounds of the present invention were tested at a concentration range from 0.01 μM to 30 μM. Compounds were considered to have an interesting activity when they potentiated the choline signal at least with 200% when tested at a concentration of 30 μM (the efficacy of 100 μM choline was defined as 100% in the absence of a PAM).
EC50 values (potency), maximal effect (% efficacy), and Hill slopes were estimated by fitting the sigmoidal equation to the data using GraphPad Prism (GraphPad Software, Inc., San Diego, Calif.). An EC50 (or pEC50) was determined as a concentration relating to half the maximal effect, when a clear sigmoidal curve with top plateau was obtained.

T1 sequence (P36544 23-502): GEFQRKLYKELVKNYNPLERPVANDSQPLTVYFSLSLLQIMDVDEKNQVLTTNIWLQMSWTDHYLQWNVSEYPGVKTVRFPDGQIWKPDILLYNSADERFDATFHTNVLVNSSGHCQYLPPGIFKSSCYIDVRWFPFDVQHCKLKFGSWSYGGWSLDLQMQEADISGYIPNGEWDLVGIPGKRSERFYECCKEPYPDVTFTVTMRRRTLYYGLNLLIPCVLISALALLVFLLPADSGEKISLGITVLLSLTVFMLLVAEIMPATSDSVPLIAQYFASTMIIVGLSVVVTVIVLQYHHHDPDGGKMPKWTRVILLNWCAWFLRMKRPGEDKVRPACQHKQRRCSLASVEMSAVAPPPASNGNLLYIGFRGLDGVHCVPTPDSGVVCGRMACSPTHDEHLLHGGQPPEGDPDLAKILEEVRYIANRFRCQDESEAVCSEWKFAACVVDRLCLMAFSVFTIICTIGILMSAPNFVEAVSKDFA

SMILES	melting point [°C]	EC50 (hα7-wt nAChR [2]) [µM]	Emax (hα7-wt nAChR [2]) [%]	PAM_type (hα7-wt nAChR [1])
CCCCC(O)Cn1nc(Nc2ccc(F)c(F)c2)nc1-c1ccnc(C)c1 (racemic) [Compound E3, 1-[3-(3,4-Difluoro-phenylamino)-5-(2-methyl-pyridin-4-yl)-[1,2,4]triazol-1-yl]-hexan-2-ol]	137.96	–	–	–
CCC(O)Cn1nc(Nc2ccc(F)c(F)c2)nc1-c1ccnc(C)c1 (single isomer, unassigned) [Compound E6]	142.72	0.955	–	2
CCCC(O)Cn1nc(Nc2ccc(F)c(F)c2)nc1-c1cc(C)nc(C)c1 (single isomer, unassigned) [Compound E13]	141.14	0.245	490	1
CCC(O)Cn1nc(Nc2cccc(Cl)c2)nc1-c1cc(C)nc(C)c1 (single isomer, unassigned) [Compound E18]	–	1.29	–	1
CCC(O)Cn1nc(Nc2cc(OC)cc(C(F)(F)F)c2)nc1-c1ccnc(C)c1 (single isomer, unassigned) [Compound E20]	120.54	0.214	–	4
CCC(O)Cn1nc(Nc2cccc(Cl)c2)nc1-c1cc(C)nc(C)c1 (single isomer, unassigned) [Compound E21]	–	0.832	–	2
CCCC(O)Cn1nc(Nc2cccc(Cl)c2)nc1-c1cc(C)nc(C)c1 (single isomer, unassigned) [Compound E23]	127.44	0.891	–	1
CCC(O)Cn1nc(Nc2ccc(F)c(F)c2)nc1-c1ccnc(C)c1 (single isomer, unassigned) [Compound E26]	145.29	0.776	580	1
CCC(O)Cn1nc(Nc2cc(OC)cc(C(F)(F)F)c2)nc1-c1ccnc(C)c1 (single isomer, unassigned) [Compound E28]	117.16	1.78	–	2
CCCCC(O)Cn1nc(Nc2ccc(F)c(F)c2)nc1-c1cc(C)nc(C)c1 (single isomer, unassigned; (-)) [Compound E4, (−)-1-[3-(3,4-Difluoro-phenylamino)-5-(2,6-dimethyl-pyridin-4-yl)-[1,2,4]triazol-1-yl]-hexan-2-ol]	134.6	0.209	–	–
CC[C@H](O)Cn1nc(Nc2ccc(F)c(F)c2F)nc1-c1cc(C)nc(C)c1 [Compound E32, (S)-1-[5-(2,6-Dimethyl-pyridin-4-yl)-3-(2,3,4-trifluoro-phenylamino)-[1,2,4]triazol-1-yl]-butan-2-ol]	–	0.513	–	2
CC[C@H](O)Cn1nc(Nc2ccc(F)c(F)c2F)nc1-c1cc(C)nc(C)c1.Cl [Compound E33, (S)-1-[5-(2,6-Dimethyl-pyridin-4-yl)-3-(2,3,4-trifluoro-phenylamino)-[1,2,4]triazol-1-yl]-butan-2-ol HCl salt]	237.44	0.437	–	–
CC[C@H](O)Cn1nc(Nc2cccc(Cl)c2F)nc1-c1cc(C)nc(C)c1 [Compound E34, (S)-1-[3-(3-Chloro-2-fluoro-phenylamino)-5-(2,6-dimethyl-pyridin-4-yl)-[1,2,4]triazol-1-yl]-butan-2-ol]	–	0.316	–	2
CC[C@H](O)Cn1nc(Nc2cc(F)cc(OC)c2)nc1-c1cc(C)nc(C)c1.Cl [Compound E37, (S)-1-[5-(2,6-Dimethyl-pyridin-4-yl)-3-(3-fluoro-5-methoxy-phenylamino)-[1,2,4]triazol-1-yl]-butan-2-ol HCl salt]	–	1.58	–	2

More lines, in order of falling EC50 (hα7-wt nAChR [2]), values ahead:

melting point [°C]	EC50 (hα7-wt nAChR [2]) [µM]	Emax (hα7-wt nAChR [2]) [%]	SMILES	PAM_type (hα7-wt nAChR [1])
–	2.09	–	CC[C@H](O)Cn1nc(Nc2cc(F)cc(OC)c2)nc1-c1ccnc(C)c1 [Compound E36, (S)-1-[3-(3-Fluoro-5-methoxy-phenylamino)-5-(2-methyl-pyridin-4-yl)-[1,2,4]triazol-1-yl]butan-2-ol HCl salt]	2
–	0.851	–	CCCC(O)Cn1nc(Nc2cccc(Cl)c2)nc1-c1cc(C)nc(C)c1 (single isomer, unassigned) [Compound E24]	2
133.1	0.676	–	CCCC(O)Cn1nc(Nc2ccc(F)c(F)c2)nc1-c1ccnc(C)c1 (single isomer, unassigned) [Compound E15]	1
–	0.55	–	CC[C@H](O)Cn1nc(Nc2ccc(F)c(F)c2F)nc1-c1ccnc(C)c1 [Compound E31, (S)-1-[5-(2-Methyl-pyridin-4-yl)-3-(2,3,4-trifluoro-phenylamino)-[1,2,4]-triazol-1-yl]-butan-2-ol]	2
–	0.468	–	CC[C@H](O)Cn1nc(Nc2cccc(Cl)c2F)nc1-c1cc(C)nc(C)c1 [Compound E35, (S)-1-[3-(3-Chloro-2-fluoro-phenylamino)-5-(2,6-dimethyl-pyridin-4-yl)-[1,2,4]-triazol-1-yl]-butan-2-ol HCl salt]	–
134.82	0.417	–	CCCC(O)Cn1nc(Nc2ccc(F)c(F)c2)nc1-c1ccnc(C)c1 (single isomer, unassigned) [Compound E16]	2
139.48	0.316	–	CCCC(O)Cn1nc(Nc2ccc(F)c(F)c2)nc1-c1cc(C)nc(C)c1 (single isomer, unassigned) [Compound E14]	2

Source: patent US8440701B2, “Trisubstituted 1,2,4 triazoles” (Janssen Pharmaceutica NV, priority 2007, dated 2013)
